Data from patent US10597377B2, “Somatostatin modulators and uses thereof” (priority 2016, dated 2020).

Each molecule was assayed against human SSTR2 (Homo sapiens (Human), UniProt P30874) (assay: Human SSTR2 intracellular cAMP functional assay for agonists (CHO-K1 cells, HTRF)). Conditions: inhibition of cAMP activities via human SST2R; CHO-K1 cells stably expressing human SSTR2.
Format: cell-based
Description: Functional Assay for SSTR2 Agonists
General overview: All five SSTR subtypes are Gi coupled G-protein coupled receptors (GPCRs) that lead to decreases in intracellular cyclic AMP (cAMP) when activated by an agonist. […] Human SSTR2 intracellular cAMP assay is described below. The human SSTR1, 3, 4 and 5 assays follow the same protocol of SSTR2.
The cells are cultured at 37° C., 5% CO2 and 95% humidity. […] The cells are incubated for 20 minutes at 37° C. […] The cells are treated with 50 μL of lysis buffer (HRTF cAMP kit, Cisbio). […] The time-resolved fluorescent signal is read with a Tecan M1000Pro multiplate reader. The intracellular cAMP concentrations are calculated by regression to a standard curve and are plotted vs. the concentration of the compounds of the invention and the EC50 of the compounds are calculated using standard methods. All data manipluations are in GraphPad Prism v6.

Chain of human SSTR2 (P30874 whole entry): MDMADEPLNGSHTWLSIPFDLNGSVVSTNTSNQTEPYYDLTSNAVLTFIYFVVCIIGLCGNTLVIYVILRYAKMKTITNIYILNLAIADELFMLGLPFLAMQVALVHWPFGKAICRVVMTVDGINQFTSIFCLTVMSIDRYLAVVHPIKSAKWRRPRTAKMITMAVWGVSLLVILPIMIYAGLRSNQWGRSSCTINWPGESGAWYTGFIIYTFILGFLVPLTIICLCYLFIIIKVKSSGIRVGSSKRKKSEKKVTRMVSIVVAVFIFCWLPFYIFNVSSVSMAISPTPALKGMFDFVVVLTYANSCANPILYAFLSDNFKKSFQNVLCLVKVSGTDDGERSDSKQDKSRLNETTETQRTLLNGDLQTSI

Q: With `Nc1ncccc1-c1ccc2ncc(-c3cc(F)cc(F)c3)c(N3CC[C@H]4NCCO[C@@H]4C3)c2c1` (racemic) [2-246] as the molecule, how does the EC50 read?
A: Its EC50 is < 10 nM.

Q: With `COC(=O)Nc1c(F)cncc1-c1ccc2ncc(-c3cc(C)cc(F)c3)c(N3CCC(N)CC3)c2c1` [2-171, methyl N-{3-[4-(4-aminopiperidin-1-yl)-3-(3-fluoro-5-methylphenyl)quinolin-6-yl]-5-fluoropyridin-4-yl}carbamate] as the molecule, how does the EC50 read?
A: The EC50 was < 10 nM.

Q: How did the EC50 turn out when `C#Cc1ccnc(-c2ccc3ncc(-c4cc(F)cc(F)c4)c(N4CC[C@H]5NCCO[C@@H]5C4)c3c2)c1N` [2-277, 2-{4-[trans-octahydro-1H-pyrido[3,4-b]morpholin-6-yl]-3-(3,5-difluorophenyl)quinolin-6-yl]-4-ethynylpyridin-3-amine] was run?
A: Its EC50 is < 10 nM.

Q: `Cc1cc(F)cc(-c2cnc3ccc(-c4cc(F)cc(C#N)c4O)nc3c2N2CCC(N)CC2)c1` [3-2, 3-[8-(4-aminopiperidin-1-yl)-7-(3-fluoro-5-methylphenyl)-1,5-naphthyridin-2-yl]-5-fluoro-2-hydroxybenzonitrile] was tested. Which EC50 did it give?
A: The EC50 was < 10 nM.

Q: For `COC(=O)Nc1ncc(F)cc1-c1ccc2ncc(-c3cc(C)cc(F)c3)c(N3CCC(N)CC3)c2c1` [2-182, methyl N-{3-[4-(4-aminopiperidin-1-yl)-3-(3-fluoro-5-methylphenyl)quinolin-6-yl]-5-fluoropyridin-2-yl}carbamate], which EC50 is on record?
A: The EC50 was < 10 nM.

Q: With `N#Cc1cncc(-c2ccc3ncc(-c4cc(F)cc(F)c4)c(N4CC[C@H]5NCCO[C@@H]5C4)c3c2)c1N` (racemic) [2-244, 5-{4-[trans-octahydro-1H-pyrido[3,4-b]morpholin-6-yl]-3-(3,5-difluorophenyl)quinolin-6-yl}-4-aminopyridine-3-carbonitrile] as the molecule, how does the EC50 read?
A: The EC50 was < 10 nM.

Q: For `Cc1cc(F)cc(-c2nnc3cc(Cl)c(-c4cc(F)cc(C(N)=O)c4)cc3c2N2CC[C@@H](N)[C@H](O)C2)c1` (relative stereo) [1-26, 3-{4-[trans-4-amino-3-hydroxypiperidin-1-yl]-7-chloro-3-(3-fluoro-5-methylphenyl)cinnolin-6-yl}-5-fluorobenzamide], which EC50 is on record?
A: The EC50 was < 10 nM.
